In ChEMBL document CHEMBL4229333, “Effects of rigidity on the selectivity of protein kinase inhibitors” (Eur J Med Chem, 2018):

Assays:
[1] = molecular target: Ribosomal protein S6 kinase beta-2 (Homo sapiens) (UniProt Q9UBS0); experiment: Inhibition of P70S6K2 (unknown origin) at 1 uM by mobility shift microfluidics platform based assay relative to control
[2] = molecular target: Mitogen-activated protein kinase kinase kinase kinase 5 (Homo sapiens) (UniProt Q9Y4K4); experiment: Inhibition of MAP4K5 (unknown origin) at 1 uM by mobility shift microfluidics platform based assay relative to control
[3] = molecular target: Ephrin type-A receptor 4 (Homo sapiens) (UniProt P54764); experiment: Inhibition of EPH-A4 (unknown origin) at 1 uM by mobility shift microfluidics platform based assay relative to control
Ephrin type-A receptor 4 (Homo sapiens), sequence (P54764 whole entry): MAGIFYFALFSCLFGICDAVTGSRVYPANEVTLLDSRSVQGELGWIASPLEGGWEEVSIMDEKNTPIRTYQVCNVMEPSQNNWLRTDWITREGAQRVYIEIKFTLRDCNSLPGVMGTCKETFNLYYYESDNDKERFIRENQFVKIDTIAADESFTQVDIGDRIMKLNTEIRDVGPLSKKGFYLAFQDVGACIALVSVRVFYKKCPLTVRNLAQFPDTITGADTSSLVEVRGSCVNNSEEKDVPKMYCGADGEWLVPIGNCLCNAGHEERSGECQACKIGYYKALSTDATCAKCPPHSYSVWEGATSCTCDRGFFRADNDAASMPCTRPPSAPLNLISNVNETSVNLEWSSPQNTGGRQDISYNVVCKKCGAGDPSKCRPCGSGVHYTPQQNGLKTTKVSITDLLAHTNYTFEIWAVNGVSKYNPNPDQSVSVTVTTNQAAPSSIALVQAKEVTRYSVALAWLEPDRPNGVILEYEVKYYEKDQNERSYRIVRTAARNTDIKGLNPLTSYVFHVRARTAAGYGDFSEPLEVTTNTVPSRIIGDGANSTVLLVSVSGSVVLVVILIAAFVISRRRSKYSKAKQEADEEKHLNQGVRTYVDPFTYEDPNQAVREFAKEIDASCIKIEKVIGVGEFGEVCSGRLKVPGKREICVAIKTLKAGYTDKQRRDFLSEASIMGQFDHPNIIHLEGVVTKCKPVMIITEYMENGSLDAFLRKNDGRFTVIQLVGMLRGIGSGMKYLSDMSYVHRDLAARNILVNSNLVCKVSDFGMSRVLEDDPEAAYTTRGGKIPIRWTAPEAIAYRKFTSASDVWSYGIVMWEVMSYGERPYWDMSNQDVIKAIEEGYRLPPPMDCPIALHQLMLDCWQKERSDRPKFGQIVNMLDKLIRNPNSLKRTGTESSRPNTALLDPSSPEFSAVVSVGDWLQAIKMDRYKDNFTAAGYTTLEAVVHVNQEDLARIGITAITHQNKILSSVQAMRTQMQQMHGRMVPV

[4] = molecular target: Tyrosine-protein kinase Lck (Homo sapiens) (UniProt P06239); experiment: Inhibition of LCK (unknown origin) at 1 uM by mobility shift microfluidics platform based assay relative to control
[5] = molecular target: Serine/threonine-protein kinase Chk1 (Homo sapiens) (UniProt O14757); experiment: Inhibition of CHEK1 (unknown origin) at 1 uM by mobility shift microfluidics platform based assay relative to control
Serine/threonine-protein kinase Chk1 (Homo sapiens), sequence (O14757 whole entry): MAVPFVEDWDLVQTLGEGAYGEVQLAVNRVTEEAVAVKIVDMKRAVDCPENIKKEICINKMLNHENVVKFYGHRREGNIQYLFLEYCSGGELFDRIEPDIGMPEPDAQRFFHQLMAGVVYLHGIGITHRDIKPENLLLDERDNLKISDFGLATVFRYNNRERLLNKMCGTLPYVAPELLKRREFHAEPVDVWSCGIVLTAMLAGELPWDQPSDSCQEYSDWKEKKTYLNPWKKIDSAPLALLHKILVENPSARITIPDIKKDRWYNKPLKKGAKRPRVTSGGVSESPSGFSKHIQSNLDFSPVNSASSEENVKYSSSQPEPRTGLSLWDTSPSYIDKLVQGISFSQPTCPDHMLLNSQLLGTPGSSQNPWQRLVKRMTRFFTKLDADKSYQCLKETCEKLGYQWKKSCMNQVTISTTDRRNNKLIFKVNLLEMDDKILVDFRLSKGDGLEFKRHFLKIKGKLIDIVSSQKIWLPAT

[6] = molecular target: Cyclin-dependent kinase 2 (Homo sapiens) (UniProt P24941); experiment: Inhibition of CDK2 (unknown origin) at 1 uM by mobility shift microfluidics platform based assay relative to control
[7] = molecular target: Dual specificity tyrosine-phosphorylation-regulated kinase 4 (Homo sapiens) (UniProt Q9NR20); experiment: Inhibition of DYRK4 (unknown origin) at 1 uM by mobility shift microfluidics platform based assay relative to control
[8] = molecular target: Aurora kinase C (Homo sapiens) (UniProt Q9UQB9); experiment: Inhibition of AURORA-C (unknown origin) at 1 uM by mobility shift microfluidics platform based assay relative to control
[9] = molecular target: Tyrosine-protein kinase Lyn (Homo sapiens) (UniProt P07948); experiment: Inhibition of LYNA (unknown origin) at 1 uM by mobility shift microfluidics platform based assay relative to control
[10] = molecular target: Vascular endothelial growth factor receptor 1 (Homo sapiens) (UniProt P17948); experiment: Inhibition of FLT1 (unknown origin) at 1 uM by mobility shift microfluidics platform based assay relative to control
[11] = molecular target: Tyrosine-protein kinase SYK (Homo sapiens) (UniProt P43405); experiment: Inhibition of SYK (unknown origin) at 1 uM by mobility shift microfluidics platform based assay relative to control
[12] = molecular target: Rho-associated protein kinase 1 (Homo sapiens) (UniProt Q13464); experiment: Inhibition of ROCK1 (unknown origin) at 1 uM by mobility shift microfluidics platform based assay relative to control
[13] = molecular target: Cyclin-dependent kinase 5 (Homo sapiens) (UniProt Q00535); experiment: Inhibition of CDK5 (unknown origin) at 1 uM by mobility shift microfluidics platform based assay relative to control
Cyclin-dependent kinase 5 (Homo sapiens), sequence (Q00535 whole entry, looked up): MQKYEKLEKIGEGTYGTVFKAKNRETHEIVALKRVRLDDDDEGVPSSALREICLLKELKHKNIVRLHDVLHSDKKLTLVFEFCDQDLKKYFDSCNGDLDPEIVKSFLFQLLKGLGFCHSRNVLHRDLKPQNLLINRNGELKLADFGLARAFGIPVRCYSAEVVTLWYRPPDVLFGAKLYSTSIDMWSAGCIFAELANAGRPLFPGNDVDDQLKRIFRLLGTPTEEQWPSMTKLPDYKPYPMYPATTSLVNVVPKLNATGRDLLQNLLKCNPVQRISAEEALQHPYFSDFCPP

[14] = molecular target: Protein kinase C gamma type (Homo sapiens) (UniProt P05129); experiment: Inhibition of PKC-gamma (unknown origin) at 1 uM by mobility shift microfluidics platform based assay relative to control
[15] = molecular target: Serine/threonine-protein kinase BRSK2 (Homo sapiens) (UniProt Q8IWQ3); experiment: Inhibition of BRSK2 (unknown origin) at 1 uM by mobility shift microfluidics platform based assay relative to control
[16] = molecular target: Leukocyte tyrosine kinase receptor (Homo sapiens) (UniProt P29376); experiment: Inhibition of LTK (unknown origin) at 1 uM by mobility shift microfluidics platform based assay relative to control
[17] = molecular target: Serine/threonine-protein kinase PAK 3 (Homo sapiens) (UniProt O75914); experiment: Inhibition of PAK3 (unknown origin) at 1 uM by mobility shift microfluidics platform based assay relative to control
[18] = molecular target: Mitogen-activated protein kinase kinase kinase 7 (Homo sapiens) (UniProt O43318); experiment: Inhibition of TAK1 (unknown origin) at 1 uM by mobility shift microfluidics platform based assay relative to control
[19] = molecular target: Homeodomain-interacting protein kinase 1 (Homo sapiens) (UniProt Q86Z02); experiment: Inhibition of HIPK1 (unknown origin) at 1 uM by mobility shift microfluidics platform based assay relative to control
[20] = molecular target: Focal adhesion kinase 1 (Homo sapiens) (UniProt Q05397); experiment: Inhibition of FAK (unknown origin) at 1 uM by mobility shift microfluidics platform based assay relative to control
[21] = molecular target: Serine/threonine-protein kinase MRCK alpha (Homo sapiens) (UniProt Q5VT25); experiment: Inhibition of MRCK-alpha (unknown origin) at 1 uM by mobility shift microfluidics platform based assay relative to control
[22] = molecular target: Ribosomal protein S6 kinase alpha-3 (Homo sapiens) (UniProt P51812); experiment: Inhibition of RSK2 (unknown origin) at 1 uM by mobility shift microfluidics platform based assay relative to control
[23] = molecular target: Casein kinase I isoform gamma-2 (Homo sapiens) (UniProt P78368); experiment: Inhibition of CK1-gamma2 (unknown origin) at 1 uM by mobility shift microfluidics platform based assay relative to control
Casein kinase I isoform gamma-2 (Homo sapiens), sequence (P78368 whole entry, looked up, canonical isoform): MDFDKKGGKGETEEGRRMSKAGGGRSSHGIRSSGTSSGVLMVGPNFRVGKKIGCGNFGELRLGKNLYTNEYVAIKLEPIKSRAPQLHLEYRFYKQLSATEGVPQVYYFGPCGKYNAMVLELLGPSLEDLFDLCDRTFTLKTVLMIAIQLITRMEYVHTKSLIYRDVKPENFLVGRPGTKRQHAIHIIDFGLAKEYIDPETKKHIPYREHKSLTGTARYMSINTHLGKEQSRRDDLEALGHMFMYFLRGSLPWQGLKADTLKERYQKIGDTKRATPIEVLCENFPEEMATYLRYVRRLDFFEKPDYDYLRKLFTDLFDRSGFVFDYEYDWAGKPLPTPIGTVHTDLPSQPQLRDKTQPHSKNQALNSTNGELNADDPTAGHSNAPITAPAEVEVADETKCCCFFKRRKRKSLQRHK

[24] = molecular target: Protein-tyrosine kinase 6 (Homo sapiens) (UniProt Q13882); experiment: Inhibition of BRK (unknown origin) at 1 uM by mobility shift microfluidics platform based assay relative to control
[25] = molecular target: Mitogen-activated protein kinase kinase kinase kinase 2 (Homo sapiens) (UniProt Q12851); experiment: Inhibition of MAP4K2 (unknown origin) at 1 uM by mobility shift microfluidics platform based assay relative to control
Mitogen-activated protein kinase kinase kinase kinase 2 (Homo sapiens), sequence (Q12851 whole entry): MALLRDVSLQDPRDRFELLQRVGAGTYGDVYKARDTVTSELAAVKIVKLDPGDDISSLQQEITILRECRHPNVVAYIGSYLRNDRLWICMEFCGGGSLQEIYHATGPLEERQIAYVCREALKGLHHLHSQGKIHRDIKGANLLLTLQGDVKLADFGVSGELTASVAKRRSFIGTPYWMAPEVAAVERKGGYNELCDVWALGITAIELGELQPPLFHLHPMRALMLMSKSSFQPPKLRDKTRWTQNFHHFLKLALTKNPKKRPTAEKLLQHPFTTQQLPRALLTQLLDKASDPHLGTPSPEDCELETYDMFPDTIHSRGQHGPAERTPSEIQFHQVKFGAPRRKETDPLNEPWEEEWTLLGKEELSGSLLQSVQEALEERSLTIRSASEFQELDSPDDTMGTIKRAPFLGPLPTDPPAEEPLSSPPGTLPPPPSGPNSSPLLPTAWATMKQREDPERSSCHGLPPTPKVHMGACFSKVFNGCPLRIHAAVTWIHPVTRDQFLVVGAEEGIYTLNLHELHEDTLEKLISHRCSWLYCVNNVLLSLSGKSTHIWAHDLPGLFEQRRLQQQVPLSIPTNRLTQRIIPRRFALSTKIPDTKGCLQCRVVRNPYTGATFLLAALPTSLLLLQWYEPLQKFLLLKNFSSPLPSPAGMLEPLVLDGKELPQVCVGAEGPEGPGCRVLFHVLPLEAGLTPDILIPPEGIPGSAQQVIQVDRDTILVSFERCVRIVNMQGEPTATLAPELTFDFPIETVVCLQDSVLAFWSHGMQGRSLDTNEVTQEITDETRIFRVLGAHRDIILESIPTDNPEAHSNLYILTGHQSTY

[26] = molecular target: Tyrosine-protein kinase FRK (Homo sapiens) (UniProt P42685); experiment: Inhibition of PTK5 (unknown origin) at 1 uM by mobility shift microfluidics platform based assay relative to control
[27] = molecular target: Serine/threonine-protein kinase 24 (Homo sapiens) (UniProt Q9Y6E0); experiment: Inhibition of MST3 (unknown origin) at 1 uM by mobility shift microfluidics platform based assay relative to control
Serine/threonine-protein kinase 24 (Homo sapiens), sequence (Q9Y6E0 whole entry, looked up): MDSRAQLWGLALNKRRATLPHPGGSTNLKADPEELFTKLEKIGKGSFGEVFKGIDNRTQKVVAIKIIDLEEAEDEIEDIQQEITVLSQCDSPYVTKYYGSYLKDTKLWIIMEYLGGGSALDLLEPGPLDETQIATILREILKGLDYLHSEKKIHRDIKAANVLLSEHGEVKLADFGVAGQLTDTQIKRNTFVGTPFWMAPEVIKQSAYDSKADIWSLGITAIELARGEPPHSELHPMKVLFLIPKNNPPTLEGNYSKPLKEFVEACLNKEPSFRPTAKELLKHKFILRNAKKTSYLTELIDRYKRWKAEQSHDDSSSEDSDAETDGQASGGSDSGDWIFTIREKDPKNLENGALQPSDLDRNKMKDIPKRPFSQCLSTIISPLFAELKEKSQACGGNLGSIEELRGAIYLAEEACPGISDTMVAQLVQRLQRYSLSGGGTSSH

[28] = molecular target: Homeodomain-interacting protein kinase 4 (Homo sapiens) (UniProt Q8NE63); experiment: Inhibition of HIPK4 (unknown origin) at 1 uM by mobility shift microfluidics platform based assay relative to control
[29] = molecular target: Serine/threonine-protein kinase PAK 5 (Homo sapiens) (UniProt Q9P286); experiment: Inhibition of PAK5 (unknown origin) at 1 uM by mobility shift microfluidics platform based assay relative to control
[30] = molecular target: Ribosomal protein S6 kinase alpha-1 (Homo sapiens) (UniProt Q15418); experiment: Inhibition of RSK1 (unknown origin) at 1 uM by mobility shift microfluidics platform based assay relative to control
[31] = molecular target: Mitogen-activated protein kinase 1 (Homo sapiens) (UniProt P28482); experiment: Inhibition of MAPK1 (unknown origin) at 1 uM by mobility shift microfluidics platform based assay relative to control
Mitogen-activated protein kinase 1 (Homo sapiens), sequence (P28482 whole entry): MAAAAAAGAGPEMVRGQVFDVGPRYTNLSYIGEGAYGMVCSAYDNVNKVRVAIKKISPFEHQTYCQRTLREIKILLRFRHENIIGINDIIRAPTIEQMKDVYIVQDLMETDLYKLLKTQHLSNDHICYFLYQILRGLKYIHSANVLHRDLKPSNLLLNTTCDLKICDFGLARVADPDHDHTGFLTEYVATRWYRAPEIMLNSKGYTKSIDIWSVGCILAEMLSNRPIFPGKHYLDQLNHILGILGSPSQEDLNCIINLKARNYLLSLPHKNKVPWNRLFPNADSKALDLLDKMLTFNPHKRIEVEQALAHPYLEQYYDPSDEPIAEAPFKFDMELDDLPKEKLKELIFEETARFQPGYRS

[32] = molecular target: Tyrosine-protein kinase Tec (Homo sapiens) (UniProt P42680); experiment: Inhibition of TEC (unknown origin) at 1 uM by mobility shift microfluidics platform based assay relative to control
[33] = molecular target: RAC-alpha serine/threonine-protein kinase (Homo sapiens) (UniProt P31749); experiment: Inhibition of AKT1 (unknown origin) at 1 uM by mobility shift microfluidics platform based assay relative to control
[34] = molecular target: Receptor tyrosine-protein kinase erbB-2 (Homo sapiens) (UniProt P04626); experiment: Inhibition of ERB-B2 (unknown origin) at 1 uM by mobility shift microfluidics platform based assay relative to control
Receptor tyrosine-protein kinase erbB-2 (Homo sapiens), sequence (P04626 whole entry): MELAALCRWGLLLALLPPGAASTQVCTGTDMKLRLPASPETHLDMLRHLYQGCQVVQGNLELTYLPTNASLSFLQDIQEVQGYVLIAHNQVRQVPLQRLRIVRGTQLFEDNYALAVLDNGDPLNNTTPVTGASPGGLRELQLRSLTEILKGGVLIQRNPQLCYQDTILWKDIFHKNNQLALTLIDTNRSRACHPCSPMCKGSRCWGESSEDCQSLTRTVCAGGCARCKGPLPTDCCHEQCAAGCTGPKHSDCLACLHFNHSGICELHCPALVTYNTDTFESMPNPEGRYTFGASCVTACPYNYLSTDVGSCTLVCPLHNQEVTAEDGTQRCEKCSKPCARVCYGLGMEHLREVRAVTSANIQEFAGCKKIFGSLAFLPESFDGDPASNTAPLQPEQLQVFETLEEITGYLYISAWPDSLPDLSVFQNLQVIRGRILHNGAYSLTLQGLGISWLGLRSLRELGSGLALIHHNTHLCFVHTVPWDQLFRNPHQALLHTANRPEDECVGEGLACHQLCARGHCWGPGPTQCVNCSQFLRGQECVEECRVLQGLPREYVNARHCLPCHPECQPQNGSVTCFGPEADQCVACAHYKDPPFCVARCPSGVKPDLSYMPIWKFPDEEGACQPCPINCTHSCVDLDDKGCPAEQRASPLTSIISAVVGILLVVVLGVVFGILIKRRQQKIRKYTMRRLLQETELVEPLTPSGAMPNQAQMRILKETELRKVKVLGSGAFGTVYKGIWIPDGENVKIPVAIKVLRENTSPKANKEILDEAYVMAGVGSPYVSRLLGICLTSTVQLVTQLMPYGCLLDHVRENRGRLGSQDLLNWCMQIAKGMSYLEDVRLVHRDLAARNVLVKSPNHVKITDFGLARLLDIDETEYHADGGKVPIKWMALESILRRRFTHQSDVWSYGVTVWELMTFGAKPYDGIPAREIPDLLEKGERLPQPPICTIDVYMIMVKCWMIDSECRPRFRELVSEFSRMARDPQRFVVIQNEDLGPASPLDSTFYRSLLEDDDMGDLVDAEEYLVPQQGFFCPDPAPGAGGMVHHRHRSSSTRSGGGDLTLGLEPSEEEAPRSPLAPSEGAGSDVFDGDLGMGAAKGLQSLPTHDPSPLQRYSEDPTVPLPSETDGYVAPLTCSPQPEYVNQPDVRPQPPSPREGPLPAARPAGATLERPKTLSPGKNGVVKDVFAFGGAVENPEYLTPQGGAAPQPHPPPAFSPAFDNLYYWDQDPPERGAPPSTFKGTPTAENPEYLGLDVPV

| inhibition [1] | inhibition [2] | inhibition [3] | inhibition [4] | inhibition [5] | inhibition [6] | inhibition [7] | inhibition [8] | inhibition [9] | inhibition [10] | inhibition [11] | inhibition [12] | inhibition [13] | inhibition [14] | inhibition [15] | inhibition [16] | inhibition [17] | inhibition [18] | inhibition [19] | inhibition [20] | SMILES | also measured |
| --- | --- | --- | --- | --- | --- | --- | --- | --- | --- | --- | --- | --- | --- | --- | --- | --- | --- | --- | --- | --- | --- |
| 3% | 33% | 95% | 85% | -1% | 1% | -7% | -2% | 95% | 89% | 6% | 1% | 3% | 2% | 0% | 8% | 1% | 5% | -2% | 3% | CC(C)n1nc(C#Cc2cccc3cc(-c4cccc(C(F)(F)F)c4)ncc23)c2c(N)ncnc21 | inhibition [21]: 2%; inhibition [22]: 0%; inhibition [23]: 2%; inhibition [24]: 86%; inhibition [25]: 24%; inhibition [26]: 18%; inhibition [27]: 3%; inhibition [28]: 9%; inhibition [29]: -4%; inhibition [30]: 1%; inhibition [31]: 2%; inhibition [32]: 2%; inhibition [33]: 0%; inhibition [34]: 0% |
| 5% | 66% | 99% | 100% | -1% | 3% | -1% | 33% | 99% | 99% | -4% | 5% | 2% | -1% | -3% | 4% | 2% | 62% | -3% | -8% | CC(C)n1nc(C#Cc2cccc(NC(=O)c3cccc(C(F)(F)F)c3)c2)c2c(N)ncnc21 | inhibition [21]: 0%; inhibition [22]: 0%; inhibition [23]: 1%; inhibition [24]: 97%; inhibition [25]: 67%; inhibition [26]: 95%; inhibition [27]: 0%; inhibition [28]: 29%; inhibition [29]: 0%; inhibition [30]: 9%; inhibition [31]: 0%; inhibition [32]: 40%; inhibition [33]: -1%; inhibition [34]: 58% |
